For 5 compounds, inhibition results are on record in publication PMC5540273, “Progress towards a public chemogenomic set for protein kinases and a call for contributions” (PLoS ONE, 2017).

Test in all cases: KINOMEscan competition binding
The target of one experiment is AKT2 (Homo sapiens, UniProt P31751). The following applies: read-out: %Inh AKT2.
In the next experiment the target is BIKE (Homo sapiens, UniProt Q9NSY1). The following applies: read-out: %Inh BIKE.
In experiment [1] the target is JAK2(JH1domain-catalytic) (Homo sapiens, UniProt O60674). The following applies: read-out: %Inh JAK2(JH1domain-catalytic).
Sequence of JAK2(JH1domain-catalytic) (O60674 840-1132 limits assumed): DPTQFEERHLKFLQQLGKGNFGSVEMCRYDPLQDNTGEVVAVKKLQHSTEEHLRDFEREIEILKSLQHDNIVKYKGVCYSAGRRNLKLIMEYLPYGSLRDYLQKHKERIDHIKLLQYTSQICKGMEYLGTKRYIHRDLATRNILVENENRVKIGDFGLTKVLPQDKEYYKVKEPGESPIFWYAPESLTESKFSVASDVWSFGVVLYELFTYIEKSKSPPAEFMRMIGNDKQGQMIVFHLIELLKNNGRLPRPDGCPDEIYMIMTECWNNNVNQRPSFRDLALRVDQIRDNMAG
The target of another experiment is CAMK1D (Homo sapiens, UniProt Q8IU85). The following applies: read-out: %Inh CAMK1D.
Sequence of CAMK1D (Q8IU85 whole entry): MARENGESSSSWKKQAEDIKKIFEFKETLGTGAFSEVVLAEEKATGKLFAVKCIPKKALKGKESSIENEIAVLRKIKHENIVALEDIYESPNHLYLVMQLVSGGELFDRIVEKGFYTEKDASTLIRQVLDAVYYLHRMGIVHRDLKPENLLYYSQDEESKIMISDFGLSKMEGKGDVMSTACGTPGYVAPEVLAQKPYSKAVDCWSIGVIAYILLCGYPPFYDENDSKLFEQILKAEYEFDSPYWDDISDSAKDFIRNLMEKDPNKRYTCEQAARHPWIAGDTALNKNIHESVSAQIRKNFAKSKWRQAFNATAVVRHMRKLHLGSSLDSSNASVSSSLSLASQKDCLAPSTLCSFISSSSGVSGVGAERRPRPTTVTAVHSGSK
A further experiment deals with EPHA7 (Homo sapiens, UniProt Q15375). The following applies: read-out: %Inh EPHA7.
Sequence of EPHA7 (Q15375 28-998): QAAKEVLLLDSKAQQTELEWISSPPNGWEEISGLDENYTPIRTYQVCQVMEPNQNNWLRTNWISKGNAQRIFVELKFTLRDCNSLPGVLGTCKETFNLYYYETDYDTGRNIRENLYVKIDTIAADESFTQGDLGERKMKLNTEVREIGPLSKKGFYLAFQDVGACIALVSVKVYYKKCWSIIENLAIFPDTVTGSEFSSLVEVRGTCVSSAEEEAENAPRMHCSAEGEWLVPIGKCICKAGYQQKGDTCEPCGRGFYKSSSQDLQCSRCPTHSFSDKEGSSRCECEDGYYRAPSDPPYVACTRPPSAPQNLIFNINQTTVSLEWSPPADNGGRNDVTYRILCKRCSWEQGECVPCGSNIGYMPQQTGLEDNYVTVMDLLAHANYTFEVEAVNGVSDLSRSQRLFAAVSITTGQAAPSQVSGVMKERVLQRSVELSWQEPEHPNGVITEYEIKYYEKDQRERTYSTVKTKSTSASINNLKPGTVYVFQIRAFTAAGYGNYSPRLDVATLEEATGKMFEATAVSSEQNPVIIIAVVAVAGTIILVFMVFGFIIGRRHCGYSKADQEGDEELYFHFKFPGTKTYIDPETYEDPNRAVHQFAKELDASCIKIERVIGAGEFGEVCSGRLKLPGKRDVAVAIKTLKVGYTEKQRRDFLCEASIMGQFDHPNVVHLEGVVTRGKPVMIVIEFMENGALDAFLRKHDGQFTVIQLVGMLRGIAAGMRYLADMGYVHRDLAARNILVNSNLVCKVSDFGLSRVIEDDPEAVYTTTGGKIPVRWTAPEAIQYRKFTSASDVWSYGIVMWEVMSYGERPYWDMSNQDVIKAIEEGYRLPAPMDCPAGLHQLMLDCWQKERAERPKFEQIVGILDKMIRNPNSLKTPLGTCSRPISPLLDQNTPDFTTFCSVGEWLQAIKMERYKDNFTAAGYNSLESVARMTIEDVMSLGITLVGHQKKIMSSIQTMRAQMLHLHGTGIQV
Another experiment deals with T1, CSNK1A1L (Homo sapiens, UniProt Q8N752).
T1 sequence (Q8N752 1-337): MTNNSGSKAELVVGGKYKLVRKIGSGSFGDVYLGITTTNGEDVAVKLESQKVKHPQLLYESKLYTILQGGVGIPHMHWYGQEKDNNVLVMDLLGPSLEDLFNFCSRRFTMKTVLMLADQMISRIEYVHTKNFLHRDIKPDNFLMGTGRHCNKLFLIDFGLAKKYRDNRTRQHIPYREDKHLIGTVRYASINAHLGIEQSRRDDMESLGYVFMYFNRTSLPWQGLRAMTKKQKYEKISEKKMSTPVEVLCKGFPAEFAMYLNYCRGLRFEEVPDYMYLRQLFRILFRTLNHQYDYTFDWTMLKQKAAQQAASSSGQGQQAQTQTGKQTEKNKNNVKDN
The following applies: read-out: %Inh CSNK1A1L.

The next experiment has as its target ACVR2B (Homo sapiens, UniProt Q13705). The following applies: read-out: %Inh ACVR2B.
The next experiment has as its target T2, EPHA8 (Homo sapiens, UniProt P29322).
T2 sequence (P29322 28-1005): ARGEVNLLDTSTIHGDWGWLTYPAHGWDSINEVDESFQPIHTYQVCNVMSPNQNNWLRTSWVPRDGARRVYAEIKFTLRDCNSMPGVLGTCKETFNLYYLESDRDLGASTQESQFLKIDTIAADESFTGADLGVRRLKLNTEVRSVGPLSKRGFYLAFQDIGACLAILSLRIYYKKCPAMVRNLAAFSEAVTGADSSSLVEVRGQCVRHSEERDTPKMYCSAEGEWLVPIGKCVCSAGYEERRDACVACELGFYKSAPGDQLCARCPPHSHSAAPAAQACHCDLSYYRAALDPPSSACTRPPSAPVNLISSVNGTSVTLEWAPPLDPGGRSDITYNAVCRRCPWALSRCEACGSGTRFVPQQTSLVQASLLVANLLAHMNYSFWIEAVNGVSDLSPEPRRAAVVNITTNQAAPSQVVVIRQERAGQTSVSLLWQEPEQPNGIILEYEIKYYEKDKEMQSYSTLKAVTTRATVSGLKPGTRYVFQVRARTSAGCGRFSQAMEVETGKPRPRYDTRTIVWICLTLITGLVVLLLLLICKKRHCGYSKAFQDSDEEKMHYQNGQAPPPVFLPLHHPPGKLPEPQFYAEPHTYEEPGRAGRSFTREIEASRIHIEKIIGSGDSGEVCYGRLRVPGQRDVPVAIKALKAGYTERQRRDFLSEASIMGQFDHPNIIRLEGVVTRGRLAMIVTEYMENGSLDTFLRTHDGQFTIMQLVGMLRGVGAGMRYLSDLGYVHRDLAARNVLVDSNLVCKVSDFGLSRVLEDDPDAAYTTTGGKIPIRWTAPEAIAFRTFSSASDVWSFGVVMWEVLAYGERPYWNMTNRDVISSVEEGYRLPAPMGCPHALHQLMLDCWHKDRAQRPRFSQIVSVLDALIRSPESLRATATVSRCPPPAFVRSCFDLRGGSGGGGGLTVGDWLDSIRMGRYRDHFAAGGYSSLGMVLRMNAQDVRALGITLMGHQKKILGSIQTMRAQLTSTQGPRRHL
The following applies: read-out: %Inh EPHA8.

The target in another experiment is ABL1-nonphosphorylated (Homo sapiens, UniProt P00519). The following applies: read-out: %Inh ABL1-nonphosphorylated.
Sequence of ABL1-nonphosphorylated (P00519 whole entry): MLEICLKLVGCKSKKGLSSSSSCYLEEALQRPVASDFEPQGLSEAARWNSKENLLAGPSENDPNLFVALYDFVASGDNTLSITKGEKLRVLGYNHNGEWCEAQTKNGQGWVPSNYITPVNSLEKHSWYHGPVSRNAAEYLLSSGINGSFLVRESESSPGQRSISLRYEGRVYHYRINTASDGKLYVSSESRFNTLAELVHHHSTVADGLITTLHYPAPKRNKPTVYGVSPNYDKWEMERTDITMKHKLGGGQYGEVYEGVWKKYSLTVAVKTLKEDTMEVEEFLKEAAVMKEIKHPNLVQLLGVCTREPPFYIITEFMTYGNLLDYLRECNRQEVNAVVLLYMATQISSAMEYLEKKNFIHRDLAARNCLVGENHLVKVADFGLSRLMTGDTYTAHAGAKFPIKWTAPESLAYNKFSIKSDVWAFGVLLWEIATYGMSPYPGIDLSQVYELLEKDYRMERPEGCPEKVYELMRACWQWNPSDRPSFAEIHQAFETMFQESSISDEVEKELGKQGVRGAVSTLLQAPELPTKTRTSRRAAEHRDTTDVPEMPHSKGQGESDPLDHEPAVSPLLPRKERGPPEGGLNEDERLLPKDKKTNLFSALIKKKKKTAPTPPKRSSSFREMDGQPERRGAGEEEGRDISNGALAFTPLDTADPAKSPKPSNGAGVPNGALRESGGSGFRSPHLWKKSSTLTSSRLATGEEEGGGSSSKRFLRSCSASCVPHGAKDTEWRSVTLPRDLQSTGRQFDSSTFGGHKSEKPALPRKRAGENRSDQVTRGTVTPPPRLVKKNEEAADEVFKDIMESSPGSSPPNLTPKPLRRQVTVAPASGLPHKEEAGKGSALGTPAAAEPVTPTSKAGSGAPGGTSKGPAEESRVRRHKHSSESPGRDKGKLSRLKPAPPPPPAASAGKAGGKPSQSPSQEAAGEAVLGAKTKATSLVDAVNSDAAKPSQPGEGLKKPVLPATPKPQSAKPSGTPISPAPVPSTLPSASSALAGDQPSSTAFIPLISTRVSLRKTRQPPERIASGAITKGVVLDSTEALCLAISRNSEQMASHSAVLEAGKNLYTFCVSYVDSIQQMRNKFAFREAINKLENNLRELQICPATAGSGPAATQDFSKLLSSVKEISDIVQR
In the next experiment the target is CDKL1 (Homo sapiens, UniProt Q00532). The following applies: read-out: %Inh CDKL1.
Sequence of CDKL1 (Q00532 whole entry): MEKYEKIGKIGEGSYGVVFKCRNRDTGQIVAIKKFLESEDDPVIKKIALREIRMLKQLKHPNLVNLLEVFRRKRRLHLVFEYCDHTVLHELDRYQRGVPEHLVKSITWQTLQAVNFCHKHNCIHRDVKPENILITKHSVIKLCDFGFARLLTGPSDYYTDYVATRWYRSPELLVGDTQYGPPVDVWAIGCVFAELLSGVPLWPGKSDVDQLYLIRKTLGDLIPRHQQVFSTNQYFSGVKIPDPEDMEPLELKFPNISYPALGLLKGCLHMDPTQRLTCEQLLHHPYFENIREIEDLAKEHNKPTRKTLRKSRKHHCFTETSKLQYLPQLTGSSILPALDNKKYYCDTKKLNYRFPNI
The target in another experiment is T3, IKK-epsilon (Homo sapiens, UniProt Q14164).
T3 sequence (Q14164 1-716): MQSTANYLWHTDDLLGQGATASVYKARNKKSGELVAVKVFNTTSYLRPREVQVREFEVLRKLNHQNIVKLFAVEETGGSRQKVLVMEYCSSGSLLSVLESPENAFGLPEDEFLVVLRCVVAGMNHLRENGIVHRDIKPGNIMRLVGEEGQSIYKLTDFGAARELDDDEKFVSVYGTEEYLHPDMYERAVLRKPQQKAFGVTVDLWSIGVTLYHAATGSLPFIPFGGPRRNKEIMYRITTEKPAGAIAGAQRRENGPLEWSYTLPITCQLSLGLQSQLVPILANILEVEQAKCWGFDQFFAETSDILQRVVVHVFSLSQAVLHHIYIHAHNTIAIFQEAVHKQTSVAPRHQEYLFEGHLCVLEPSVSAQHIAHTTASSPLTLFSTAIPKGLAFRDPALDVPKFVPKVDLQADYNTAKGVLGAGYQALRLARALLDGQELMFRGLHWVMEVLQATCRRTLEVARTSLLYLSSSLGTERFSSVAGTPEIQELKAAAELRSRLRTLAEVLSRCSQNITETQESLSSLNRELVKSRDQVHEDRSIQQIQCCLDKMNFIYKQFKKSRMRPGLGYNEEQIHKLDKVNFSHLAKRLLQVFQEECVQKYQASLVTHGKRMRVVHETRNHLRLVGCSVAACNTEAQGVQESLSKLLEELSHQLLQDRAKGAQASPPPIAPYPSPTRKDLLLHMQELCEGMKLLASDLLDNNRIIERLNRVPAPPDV
The following applies: read-out: %Inh IKK-epsilon.

Another experiment has as its target DYRK1A (Homo sapiens, UniProt Q13627). The following applies: read-out: %Inh DYRK1A.

Sequence of AKT2 (P31751 whole entry): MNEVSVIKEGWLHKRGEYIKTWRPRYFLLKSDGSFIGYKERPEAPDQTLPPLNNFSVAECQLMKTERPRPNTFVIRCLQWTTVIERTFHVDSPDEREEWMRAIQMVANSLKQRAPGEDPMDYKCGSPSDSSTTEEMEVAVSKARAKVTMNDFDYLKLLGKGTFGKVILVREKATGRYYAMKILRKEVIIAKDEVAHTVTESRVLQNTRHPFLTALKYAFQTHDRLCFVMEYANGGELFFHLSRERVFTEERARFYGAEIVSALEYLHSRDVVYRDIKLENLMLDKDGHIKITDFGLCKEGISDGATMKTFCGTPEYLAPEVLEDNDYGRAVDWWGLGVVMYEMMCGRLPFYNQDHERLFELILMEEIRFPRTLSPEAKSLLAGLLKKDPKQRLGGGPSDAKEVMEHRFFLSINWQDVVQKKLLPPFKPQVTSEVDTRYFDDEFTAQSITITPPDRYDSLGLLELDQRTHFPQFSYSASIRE
Sequence of ACVR2B (Q13705 19-512): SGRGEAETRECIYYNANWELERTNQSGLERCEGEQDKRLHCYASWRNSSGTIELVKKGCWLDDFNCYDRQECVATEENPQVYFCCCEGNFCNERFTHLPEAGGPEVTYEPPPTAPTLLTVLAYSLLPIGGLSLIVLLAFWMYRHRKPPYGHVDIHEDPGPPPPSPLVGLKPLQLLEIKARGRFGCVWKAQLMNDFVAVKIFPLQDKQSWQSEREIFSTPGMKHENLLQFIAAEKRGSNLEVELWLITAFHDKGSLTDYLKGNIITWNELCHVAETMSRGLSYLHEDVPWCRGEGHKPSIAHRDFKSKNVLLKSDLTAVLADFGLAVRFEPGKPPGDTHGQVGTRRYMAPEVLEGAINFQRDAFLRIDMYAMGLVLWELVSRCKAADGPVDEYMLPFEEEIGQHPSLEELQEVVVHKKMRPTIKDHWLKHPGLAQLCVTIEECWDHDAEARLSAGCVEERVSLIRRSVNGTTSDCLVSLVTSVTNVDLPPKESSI

On to `Cn1cc(-c2cnc(N)c3c(-c4ccc5c(c4)CCN5C(=O)Cc4ccccc4)csc23)cn1` [UNC10225012A], for which the inhibition at 1 µM on AKT2 was 0%; on BIKE, 0%; in [1] it was 26%; on CAMK1D it was 11%; at EPHA7, 6%; at CSNK1A1L it was 0%. Also, the inhibition at 1 µM on ACVR2B is 0%; on EPHA8, 8%; at ABL1-nonphosphorylated, 99.7%; on CDKL1, 9%; on IKK-epsilon it was 59%; on DYRK1A, 0%.
Turning to `CS(=O)(=O)Cc1ccc(Nc2nccc(-c3c(-c4cccc(NC(=O)C5CCCCC5)c4)nn4ncccc34)n2)cc1` [UNC10225159A], the inhibition at 1 µM is 4% on AKT2; 1% on BIKE; 16% in experiment [1]; 0% on CAMK1D; 15% at EPHA7; 0% at CSNK1A1L. In addition, the inhibition at 1 µM on ACVR2B turned out to be 0%; at EPHA8 it was 15%; on ABL1-nonphosphorylated, 8%; at CDKL1 it was 0%; on IKK-epsilon, 32%; at DYRK1A it was 26%.
Regarding `Cc1ccc(NC(=O)Nc2cccc(C(F)(F)F)c2)cc1` [UNC10225187A], the inhibition at 1 µM at AKT2 amounted to 3%; at BIKE, 4%; in [1] it was 0%; on CAMK1D, 25%; on EPHA7, 2%; at CSNK1A1L it was 0%. For the same compound, the inhibition at 1 µM on ACVR2B was determined as 0%; on EPHA8, 3%; at ABL1-nonphosphorylated it was 49%; at CDKL1 it was 14%; at IKK-epsilon, 0%; at DYRK1A it was 0%.
With `COc1cccc(OC)c1C(=O)Nc1cccc(-c2nn3ccccc3c2-c2ccnc(Nc3cccc(F)c3)n2)c1` [UNC10225310A], the inhibition at 1 µM at AKT2 is 0%; at BIKE it was 0%; in experiment [1], 3%; on CAMK1D, 13%; at EPHA7, 14%; at CSNK1A1L, 0%. In addition, the inhibition at 1 µM at ACVR2B came out at 27%; on EPHA8, 17%; at ABL1-nonphosphorylated, 28%; on CDKL1, 15%; at IKK-epsilon it was 4%; on DYRK1A, 0%.
Consider `O=c1cc(N2CCOCC2)nc2n(Cc3cccc(Cl)c3Cl)c(C3CC3)nn12` [UNC10225469A], for which the inhibition at 1 µM on AKT2 amounted to 0%; on BIKE it was 0%; in experiment [1], 6%; at CAMK1D, 0%; on EPHA7 it was 0%; at CSNK1A1L, 0%. The inhibition at 1 µM stood at 0% at ACVR2B; 9% at EPHA8; 28% on ABL1-nonphosphorylated; 20% at CDKL1; 0% on IKK-epsilon; 2% at DYRK1A.
